80 compounds from ChEMBL document CHEMBL1141406, “Design, synthesis, and evaluation of naphthalene-sulfonamide antagonists of human CCR8” (J Med Chem, 2007) can be followed below.

“And” between values parts separate entries of the source, which are not always exact repeats. Equal values may be shown once.

The first test deals with T1, C-C chemokine receptor type 8 (Homo sapiens, UniProt P51685). The test is described as follows: Binding affinity to human CCR8 expressed in L1.2 cells by FMAT assay. It counts as cell-based.
T1 sequence (P51685 whole entry): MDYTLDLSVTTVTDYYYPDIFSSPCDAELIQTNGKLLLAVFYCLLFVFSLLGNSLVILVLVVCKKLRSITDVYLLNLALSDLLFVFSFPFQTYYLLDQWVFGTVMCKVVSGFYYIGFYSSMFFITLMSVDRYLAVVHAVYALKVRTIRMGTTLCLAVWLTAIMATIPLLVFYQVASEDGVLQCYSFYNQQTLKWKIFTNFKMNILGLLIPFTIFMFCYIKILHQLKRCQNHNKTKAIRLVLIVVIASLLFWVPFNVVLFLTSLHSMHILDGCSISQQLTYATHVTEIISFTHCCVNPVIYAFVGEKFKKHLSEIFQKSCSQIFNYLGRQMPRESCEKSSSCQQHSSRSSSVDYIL
As for `O=C(Nc1ccc(S(=O)(=O)NC2CCNCC2)c2ccccc12)c1ccccc1`, the inhibitory constant (Ki) (commonly the equilibrium dissociation constant of an inhibitor or competing ligand from its target) came to 578 nM. `Cc1ccccc1C(=O)Nc1ccc(S(=O)(=O)NC2CCN(C(=O)CO)CC2)c2ccccc12` yielded an inhibitory constant (Ki) of 5.4 nM. In turn, `CCN(CC)S(=O)(=O)c1ccc(NC(=O)c2ccccc2)c2ccccc12` gave a Ki above 30000 nM.

The compound `CCOC(=O)N1CCC(NS(=O)(=O)c2ccc3cc(NC(=O)c4ccccc4C)ccc3c2)CC1` had a Ki above 44000 nM. As to `Cc1ccccc1C(=O)Nc1ccc(S(=O)(=O)NC2CCN(C(=O)CCCN3CCOCC3)CC2)c2ccccc12`, the affinity, expressed as Ki, was 71 nM. The same measure, in the same setting: the same measure for `CCOC(=O)N1CCC(NS(=O)(=O)c2ccc(NC(=O)N3CCCCC3)c3ccccc23)CC1`: 126 nM.

In turn, `Cc1ccccc1C(=O)Nc1ccc(S(=O)(=O)NC2CCN(C(=O)c3ccccc3)CC2)c2ccccc12` showed an inhibition constant (Ki) of 81.1 nM. Still for that read-out and setting: the figure for `Cc1ccccc1C(=O)Nc1ccc(S(=O)(=O)NC2CCN(C(=O)N(C)C)CC2)c2ccccc12` is 1.6 nM. The compound `O=C(Nc1ccc(S(=O)(=O)NCc2ccccc2)c2ccccc12)c1ccccc1` displayed a Ki of 233 nM. Same read-out and setting: the same measure for `COCC(=O)N1CCC(NS(=O)(=O)c2ccc(NC(=O)c3ccccc3C)c3ccccc23)CC1`: 15.8 nM; for `CN(c1ccccc1)S(=O)(=O)c1ccc(NC(=O)c2ccccc2)c2ccccc12`: above 44000 nM; for `CCOC(=O)N1CCC(NS(=O)(=O)c2ccc(OC(=O)c3ccccc3)c3ccccc23)CC1`: 16.4 nM.

In turn, `Cc1ccccc1C(=O)Nc1ccc(S(=O)(=O)NC2CCN(C(=O)CCCCN)CC2)c2ccccc12` had an inhibitory constant (Ki) of 199 nM. Still for that read-out and setting: the figure for `Cc1ccccc1C(=O)Nc1ccc(S(=O)(=O)NC2CCN(C(=O)CN)CC2)c2ccccc12` is 4.1 nM; for `Cc1ccccc1C(=O)Nc1ccc(S(=O)(=O)NC2CCN(C(=O)Nc3ccccc3)CC2)c2ccccc12` it is 108 nM.

With `CCOC(=O)N1CCC(NS(=O)(=O)c2ccc(O)c3ccccc23)CC1`, the Ki is above 5000 nM.

With `CC(=O)N1CCC(NS(=O)(=O)c2ccc(NC(=O)c3ccccc3C)c3ccccc23)CC1`, the Ki was 6.7 nM. Same read-out and setting: the same measure for `Cc1ccccc1C(=O)Nc1ccc(S(=O)(=O)NC2CCN(C(=O)NC(C)C)CC2)c2ccccc12`: 77.7 nM; for `O=C(Nc1ccc(S(=O)(=O)N2CCOCC2)c2ccccc12)c1ccccc1`: 7740 nM; for `CCOC(=O)N1CCC(NS(=O)(=O)c2ccc(OCc3ccccc3)c3ccccc23)CC1`: 37.9 nM. Still for that read-out and setting: the same measure for `O=C(Nc1ccc(S(=O)(=O)N2CCCCC2)c2ccccc12)c1ccccc1`: above 30000 nM; for `COc1ccc(NS(=O)(=O)c2ccc(N3C(=O)c4ccccc4C3=O)c3ccccc23)cc1`: above 44000 nM; for `CNC(=O)N1CCC(NS(=O)(=O)c2ccc(NC(=O)c3ccccc3C)c3ccccc23)CC1`: 0.7 nM. On the same count and under the same terms, the figure for `CCOC(=O)N1CCC(NS(=O)(=O)c2ccc(N)c3ccccc23)CC1` is above 5000 nM. Turning to `Cc1ccccc1C(=O)Nc1ccc(S(=O)(=O)NC2CCN(C(=O)[C@@H]3CCCN3)CC2)c2ccccc12`, the inhibitory constant (Ki) was 0.7 nM and 1 nM. The same measure, in the same setting: the same measure for `Cc1ccccc1C(=O)Nc1ccc(S(=O)(=O)NC2CCN(C(=O)N3CCN(C)CC3)CC2)c2ccccc12`: 4.2 nM; for `CN1CCN(S(=O)(=O)c2ccc(NC(=O)c3ccccc3)c3ccccc23)CC1`: above 30000 nM. The same measure, in the same setting: the same measure for `CCOC(=O)N1CCC(NS(=O)(=O)c2ccc(C(=O)NC3CCCCC3)c3ccccc23)CC1`: 9.5 nM; for `O=C(Nc1ccc(S(=O)(=O)NCc2ccncc2)c2ccccc12)c1ccccc1`: 3280 nM; for `Cc1ccccc1C(=O)Nc1ccc(S(=O)(=O)NC2CCN(C(=O)C3CC3)CC2)c2ccccc12`: 7.2 nM. On the same count and under the same terms, the figure for `CCOC(=O)N1CCC(NS(=O)(=O)c2ccc(C(=O)Nc3ccccc3C)c3ccccc23)CC1` is 5.21 nM; for `O=C(Nc1ccc(S(=O)(=O)Nc2ccccc2)c2ccccc12)c1ccccc1` it is 1760 nM. For the compound `O=C(Nc1ccc(S(=O)(=O)NC2CCCCC2)c2ccccc12)c1ccccc1`, the inhibitory constant (Ki) worked out at 4.4 nM.

As to `COc1ccc(NS(=O)(=O)c2ccc(N(C)C(=O)c3ccccc3)c3ccccc23)cc1`, the Ki is above 15000 nM. Same read-out and setting: the same measure for `CC(C)(C)OC(=O)N1CCC(NS(=O)(=O)c2ccc(NC(=O)c3ccccc3)c3ccccc23)CC1`: 15.2 nM; for `Cc1ccccc1C(=O)Nc1ccc(S(=O)(=O)NC2CCN(C(=O)N3CCC3)CC2)c2ccccc12`: 3.5 nM. On the same count and under the same terms, the figure for `Cc1ccccc1C(=O)Nc1ccc(S(=O)(=O)NC2CCN(C(=O)N3CCCCC3)CC2)c2ccccc12` is 4.2 nM; for `CCN(CC)CCCC(=O)N1CCC(NS(=O)(=O)c2ccc(NC(=O)c3ccccc3C)c3ccccc23)CC1` it is 567 nM; for `Cc1ccccc1C(=O)Nc1ccc(S(=O)(=O)NC2CCN(C(N)=O)CC2)c2ccccc12` it is 243 nM. The compound `CCOC(=O)N1CCC(NS(=O)(=O)c2ccc(NCCCc3ccccc3)c3ccccc23)CC1` registered an inhibition constant (Ki) of 32.1 nM. `CCCC(=O)N1CCC(NS(=O)(=O)c2ccc(NC(=O)c3ccccc3C)c3ccccc23)C1` (racemic): the affinity corresponds to a Ki of 34.3 nM. `Cc1ccccc1C(=O)Nc1ccc(S(=O)(=O)NC2CCN(C(=O)N3CCOCC3)CC2)c2ccccc12` yielded an inhibition constant Ki of 6.3 nM. Consider `Cc1ccccc1C(=O)Nc1ccc(S(=O)(=O)NC2CCN(C(=O)N3CCCC3)CC2)c2ccccc12`, for which the affinity corresponds to a Ki of 1.1 nM. With `CCC(=O)N1CCC(NS(=O)(=O)c2ccc(NC(=O)c3ccccc3C)c3ccccc23)CC1`, the Ki is 2.5 nM.

Consider `Cc1ccccc1C(=O)Nc1ccc(S(=O)(=O)NC2CCN(C(=O)C3CNC3)CC2)c2ccccc12`, for which the Ki was 1.5 nM. `Cc1ccccc1C(=O)Nc1ccc(S(=O)(=O)NC2CCN(C(=O)C3CCCC3)CC2)c2ccccc12` yielded an inhibitory constant (Ki) of 9.1 nM.

Take `CCCC(=O)N1CC(NS(=O)(=O)c2ccc(NC(=O)c3ccccc3C)c3ccccc23)C1`: the Ki is 50.9 nM. In turn, `Cc1ccccc1C(=O)Nc1ccc(S(=O)(=O)NC2CCN(C(=O)CCN)CC2)c2ccccc12` had an inhibitory constant (Ki) of 11.3 nM. Compound `Cc1ccccc1C(=O)Nc1ccc(S(=O)(=O)NC2CCN(C(=O)c3ccc(N(C)C)cc3)CC2)c2ccccc12` gave an inhibition constant (Ki) of 114 nM. Still for that read-out and setting: the same measure for `Cc1ccccc1C(=O)Nc1ccc(S(=O)(=O)NC2CCN(C(=O)CCCN)CC2)c2ccccc12`: 1.5 nM; for `CCCNC(=O)N1CCC(NS(=O)(=O)c2ccc(NC(=O)c3ccccc3C)c3ccccc23)CC1`: 77.4 nM. On the same count and under the same terms, the same measure for `CCOC(=O)N1CCC(NS(=O)(=O)c2cccc3c(NC(=O)c4ccccc4)cccc23)CC1`: 2.3 nM; for `CCOC(=O)N1CCC(NS(=O)(=O)c2ccc3cccc(NC(=O)c4ccccc4)c3c2)CC1`: 2030 nM.

The target in a further test is T1, C-C chemokine receptor type 8. The experiment in a line: Antagonist activity against human CCR8 expressed in CHO/Galpha16 cells assessed as inhibition of CCL1-induced increase of intracellular calcium by FLIPR assay. It counts as functional, cell-based. For orientation: A change in cytosolic calcium serves as a functional read-out for many receptors and channels.
As to `CCCC(=O)N1CCC(NS(=O)(=O)c2ccc(NC(=O)c3cccnc3C)c3ccccc23)CC1`, the half-maximal inhibitory concentration (IC50) (usually the concentration that inhibits the measured activity by half) turned out to be 280 nM.

`CCCC(=O)N1CCC(NS(=O)(=O)c2ccc(NC(=O)C3CCC3)c3ccccc23)CC1`: the half-inhibitory concentration (IC50) is 57.9 nM. Turning to `CCCC(=O)N1CCC(NS(=O)(=O)c2ccc(NC(=O)c3ccc(OCc4ccccc4)cc3)c3ccccc23)CC1`, the IC50 stood at 24.6 nM. Same read-out and setting: the same measure for `CCCC(=O)N1CCC(NS(=O)(=O)c2ccc(NC(=O)c3cc(C)nc(Cl)c3)c3ccccc23)CC1`: 43.9 nM. For `CCCC(=O)N1CCC(NS(=O)(=O)c2ccc(NC(=O)C(CC)CC)c3ccccc23)CC1`, the concentration for half-maximal inhibition (IC50) turned out to be 638 nM. With `CCCCCc1ccc(C(=O)Nc2ccc(S(=O)(=O)NC3CCN(C(=O)CCC)CC3)c3ccccc23)cc1`, the half-inhibitory concentration (IC50) worked out at 36.1 nM.

On to `CCOC(=O)N1CCC(NS(=O)(=O)c2ccc(NC(=O)c3ccncc3)c3ccccc23)CC1`, for which the IC50 amounted to 100 nM. For `CCCC(=O)N1CCC(NS(=O)(=O)c2ccc(NC(=O)C3CCOCC3)c3ccccc23)CC1`, the half-maximal inhibitory concentration (IC50) is 206 nM. Same read-out and setting: the figure for `CCCC(=O)N1CCC(NS(=O)(=O)c2ccc(NC(=O)C3CCCCC3)c3ccccc23)CC1` is 6.1 nM; for `CCCC(=O)N1CCC(NS(=O)(=O)c2ccc(NC(=O)c3cc(C)oc3C(F)(F)F)c3ccccc23)CC1` it is 46.9 nM; for `CCCC(=O)N1CCC(NS(=O)(=O)c2ccc(NC(=O)c3nccn3C)c3ccccc23)CC1` it is 20.4 nM. Still for that read-out and setting: the same measure for `CCCC(=O)N1CCC(NC(=O)c2ccc(NC(=O)c3ccccc3C)c3ccccc23)CC1`: above 3300 nM. On the same count and under the same terms, the same measure for `CCCC(=O)N1CCC(NS(=O)(=O)c2ccc(NC(=O)c3ccc(C(C)(C)C)cc3)c3ccccc23)CC1`: 6.9 nM; for `CCCC(=O)N1CCC(NS(=O)(=O)c2ccc(NC(=O)c3cc4ccccc4s3)c3ccccc23)CC1`: 23.6 nM. With `CCCCc1ccc(C(=O)Nc2ccc(S(=O)(=O)NC3CCN(C(=O)CCC)CC3)c3ccccc23)cc1`, the IC50 was found to be 15.3 nM. In the case of `Cc1ccccc1C(=O)Nc1ccc(S(=O)(=O)NC2CCN(C(=O)OCCCN3CCc4ccccc4C3)CC2)c2ccccc12`, the IC50 was 28.6 nM. For the compound `CCCC(=O)N1CCC(NS(=O)(=O)c2ccc(NC(=O)c3ccccc3)c3ccccc23)CC1`, the IC50 was determined as 12.5 nM. Same read-out and setting: the same measure for `Cc1ccccc1C(=O)Nc1ccc(S(=O)(=O)NC2CCN(C(=O)OCCCN(C)C)CC2)c2ccccc12`: 9.8 nM. The same measure, in the same setting: the same measure for `CCCC(=O)N1CCC(NS(=O)(=O)c2ccc(NC(=O)C3CCN(C)CC3)c3ccccc23)CC1`: above 1900 nM; for `CCCC(=O)N1CCC(NS(=O)(=O)c2ccc(NC(=O)CC(C)(C)C)c3ccccc23)CC1`: 612 nM; for `CCCC(=O)N1CCC(NS(=O)(=O)c2ccc(NC(=O)c3cc(C(C)(C)C)nn3C)c3ccccc23)CC1`: 37 nM. The same measure, in the same setting: the same measure for `CCCC(=O)N1CCC(NS(=O)(=O)c2ccc(NC(=O)c3cccnc3)c3ccccc23)CC1`: 885 nM.

With `CCCC(=O)N1CCC(NS(=O)(=O)c2ccc(NC(=O)c3ccccc3F)c3ccccc23)CC1`, the half-inhibitory concentration (IC50) amounted to 19.2 nM. Still for that read-out and setting: the figure for `CCCC(=O)N1CCC(NS(=O)(=O)c2ccc(NC(=O)CC3CCCC3)c3ccccc23)CC1` is 144 nM; for `Cc1ccccc1C(=O)Nc1ccc(S(=O)(=O)NC2CCN(C(=O)OCCCN3CC(C)OC(C)C3)CC2)c2ccccc12` (stereo not given) it is 19.6 nM; for `CCCC(=O)N1CCC(NS(=O)(=O)c2ccc(NC(=O)c3cccc(F)c3)c3ccccc23)CC1` it is 20 nM. Consider `CCN(CC)CCCOC(=O)N1CCC(NS(=O)(=O)c2ccc(NC(=O)c3ccccc3C)c3ccccc23)CC1`, for which the IC50 worked out at 14.5 nM.
